Measured values reported in PubChem BioAssay AID248 (DTP/NCI, 2004).
Several values for one entry are separate records, joined by “and”; a condition that tells them apart may be missing. Equal entries are not always repeated. Toxic doses and inconclusive results are not listed. Cut-off read from the data, not from the text of the source: active = T/C of 150% or more; inactive = T/C below 125%.

Test system: L1210 leukemia ip in BDF1 mice, survival T/C
Assay: NCI In Vivo Anticancer Drug Screen. Data for tumor model L1210 Leukemia (intraperitoneal) in B6D2F1 (BDF1) mice
Conditions: higher = longer survival
Method in brief: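 In this screen, tumor-bearing mice given compound are compared to those given vehicle, and their survival values are reported as a treated-to-control quotient.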

[1] = endpoint: mean survival time, dose: 100.0 mg/kg/injection, schedule: Q01DX009 (ip), vehicle: saline with Tween-80
[2] = endpoint: mean survival time, dose: 100.0 mg/kg/injection, schedule: Q04DX003 (ip), vehicle: Klucel (hydroxypropylcellulose) (HPC)
[3] = endpoint: mean survival time, dose: 200.0 mg/kg/injection, schedule: Q04DX003 (ip), vehicle: Klucel (hydroxypropylcellulose) (HPC)
[4] = endpoint: mean survival time, dose: 50.0 mg/kg/injection, schedule: Q01DX009 (ip), vehicle: Klucel (hydroxypropylcellulose) (HPC)
[5] = endpoint: mean survival time, dose: 100.0 mg/kg/injection, schedule: Q01DX009 (ip), vehicle: Klucel (hydroxypropylcellulose) (HPC)
[6] = endpoint: mean survival time, dose: 200.0 mg/kg/injection, schedule: Q01DX009 (ip), vehicle: Klucel (hydroxypropylcellulose) (HPC)
[7] = endpoint: mean survival time, dose: 400.0 mg/kg/injection, schedule: Q01DX009 (ip), vehicle: Klucel (hydroxypropylcellulose) (HPC)
[8] = endpoint: mean survival time, dose: 400.0 mg/kg/injection, schedule: Q04DX003 (ip), vehicle: Klucel (hydroxypropylcellulose) (HPC)
[9] = endpoint: mean survival time, dose: 100.0 mg/kg/injection, schedule: Q04DX003 (ip), vehicle: saline with Tween-80
[10] = endpoint: mean survival time, dose: 200.0 mg/kg/injection, schedule: Q01DX009 (ip), vehicle: saline with Tween-80
[11] = endpoint: mean survival time, dose: 400.0 mg/kg/injection, schedule: Q01DX009 (ip), vehicle: saline with Tween-80
[12] = endpoint: mean survival time, dose: 100.0 mg/kg/injection, schedule: Q04DX002 (ip), vehicle: Klucel (hydroxypropylcellulose) (HPC)
[13] = endpoint: mean survival time, dose: 200.0 mg/kg/injection, schedule: Q04DX002 (ip), vehicle: Klucel (hydroxypropylcellulose) (HPC)
[14] = endpoint: mean survival time, dose: 400.0 mg/kg/injection, schedule: Q04DX002 (ip), vehicle: Klucel (hydroxypropylcellulose) (HPC)

Measured: T/C

Cc1cc(C(=O)Nc2ccc(NC3=NCCN3)cc2)c(C)cc1C(=O)Nc1ccc(NC2=NCCN2)cc1
inactive: endpoint: mean survival time, dose: 1.88 mg/kg/injection, schedule: Q01DX Z (ip), vehicle: saline 93 % of control | endpoint: mean survival time, dose: 3.75 mg/kg/injection, schedule: Q01DX Z (ip), vehicle: saline 98 % of control | endpoint: mean survival time, dose: 7.5 mg/kg/injection, schedule: Q01DX Z (ip), vehicle: saline 94 % of control | endpoint: mean survival time, dose: 15.0 mg/kg/injection, schedule: Q01DX Z (ip), vehicle: saline 108 % of control | endpoint: mean survival time, dose: 30.0 mg/kg/injection, schedule: Q01DX Z (ip), vehicle: saline 103 % of control

CCCCOCN1C(=O)NC(c2ccccc2)(c2ccccc2)C1=O
inactive: endpoint: mean survival time, dose: 50.0 mg/kg/injection, schedule: Q01DX009 (ip), vehicle: saline with Tween-80 108 % of control | [1] 94 % of control

Nc1ccccc1CSc1nc2nc[nH]c(=O)c2[nH]1
inactive: [2] 95 % of control | [3] 95 % of control

CN(C)c1ccc(/C=C/c2nc3ccc([N+](=O)[O-])cc3[nH]2)cc1
inactive: [4] 97 % of control | [5] 97 % of control | [2] 97 % of control | [6] 92 % of control | [3] 102 % of control | [7] 94 % of control | [8] 103 % of control

N=C(N)c1ccc(Nc2ccc(C(=N)N)cc2)cc1
inactive: endpoint: mean survival time, dose: 3.0 mg/kg/injection, schedule: Q01DX010 (ip), vehicle: saline 95 % of control and 91 % of control | endpoint: mean survival time, dose: 6.0 mg/kg/injection, schedule: Q01DX010 (ip), vehicle: saline 95 % of control and 91 % of control | endpoint: mean survival time, dose: 12.0 mg/kg/injection, schedule: Q01DX010 (ip), vehicle: saline 94 % of control and 97 % of control | endpoint: mean survival time, dose: 15.0 mg/kg/injection, schedule: Q02DX010 (ip), vehicle: carboxymethylcellulose (CMC) 99 % of control | endpoint: mean survival time, dose: 24.0 mg/kg/injection, schedule: Q01DX010 (ip), vehicle: saline 89 % of control and 91 % of control | endpoint: mean survival time, dose: 30.0 mg/kg/injection, schedule: Q02DX010 (ip), vehicle: carboxymethylcellulose (CMC) 103 % of control | endpoint: mean survival time, dose: 44.0 mg/kg/injection, schedule: Q02DX010 (ip), vehicle: carboxymethylcellulose (CMC) 89 % of control | endpoint: mean survival time, dose: 47.0 mg/kg/injection, schedule: Q01DX001 (ip), vehicle: water 97 % of control | endpoint: mean survival time, dose: 66.0 mg/kg/injection, schedule: Q02DX010 (ip), vehicle: carboxymethylcellulose (CMC) 77 % of control | endpoint: median survival time, dose: 6.0 mg/kg/injection, schedule: Q01DX009 (ip), vehicle: saline 105 % of control and 112 % of control | endpoint: median survival time, dose: 12.0 mg/kg/injection, schedule: Q01DX009 (ip), vehicle: saline 112 % of control | endpoint: median survival time, dose: 24.0 mg/kg/injection, schedule: Q01DX009 (ip), vehicle: saline 87 % of control

COC(=O)CCN(c1cccc(Cl)c1)S(=O)(=O)c1ccc(C)cc1
inactive: endpoint: mean survival time, dose: 100.0 mg/kg/injection, schedule: Q01DX001 (ip), vehicle: saline 98 % of control | endpoint: mean survival time, dose: 200.0 mg/kg/injection, schedule: Q01DX001 (ip), vehicle: saline 92 % of control | endpoint: mean survival time, dose: 400.0 mg/kg/injection, schedule: Q01DX001 (ip), vehicle: saline 98 % of control

COc1ccc(C2C3C=CC(C3)C2C(=O)O)cc1 (stereo not given)
inactive: [1] 97 % of control | [9] 93 % of control | [10] 93 % of control | [11] 95 % of control | endpoint: mean survival time, dose: 400.0 mg/kg/injection, schedule: Q04DX003 (ip), vehicle: saline with Tween-80 91 % of control

CC1C(C)(C)P(=O)(n2nnc3ccccc32)C1(C)C (stereo not given)
inactive: endpoint: mean survival time, dose: 100.0 mg/kg/injection, schedule: Q04DX003 (ip), vehicle: saline 105 % of control | endpoint: mean survival time, dose: 200.0 mg/kg/injection, schedule: Q04DX003 (ip), vehicle: saline 97 % of control | endpoint: mean survival time, dose: 400.0 mg/kg/injection, schedule: Q04DX003 (ip), vehicle: saline 94 % of control

NC(=O)c1ccccc1NC(=O)COc1ccc(Cl)cc1
inactive: [5] 95 % of control | [2] 97 % of control | [6] 92 % of control | [3] 98 % of control | [7] 97 % of control | [8] 106 % of control

O=C(Nc1cccc2ccccc12)OC/C=C/c1ccccc1
inactive: [12] 119 % of control | [13] 93 % of control | [14] 104 % of control

O=C1CN=C(c2ccccn2)c2cc(Br)ccc2N1
inactive: endpoint: mean survival time, dose: 3.1 mg/kg/injection, schedule: Q03HX024 (ip), vehicle: Klucel (hydroxypropylcellulose) (HPC) 98 % of control | endpoint: mean survival time, dose: 6.2 mg/kg/injection, schedule: Q03HX024 (ip), vehicle: Klucel (hydroxypropylcellulose) (HPC) 100 % of control | endpoint: mean survival time, dose: 12.5 mg/kg/injection, schedule: Q03HX024 (ip), vehicle: Klucel (hydroxypropylcellulose) (HPC) 98 % of control | endpoint: mean survival time, dose: 25.0 mg/kg/injection, schedule: Q03HX024 (ip), vehicle: Klucel (hydroxypropylcellulose) (HPC) 94 % of control | endpoint: mean survival time, dose: 50.0 mg/kg/injection, schedule: Q03HX024 (ip), vehicle: Klucel (hydroxypropylcellulose) (HPC) 97 % of control | endpoint: mean survival time, dose: 100.0 mg/kg/injection, schedule: Q01DX001 (ip), vehicle: Klucel (hydroxypropylcellulose) (HPC) 96 % of control | [5] 94 % of control | [12] 101 % of control and 109 % of control | [2] 101 % of control | endpoint: mean survival time, dose: 119.0 mg/kg/injection, schedule: Q01DX001 (ip), vehicle: Klucel (hydroxypropylcellulose) (HPC) 98 % of control | endpoint: mean survival time, dose: 178.0 mg/kg/injection, schedule: Q01DX001 (ip), vehicle: Klucel (hydroxypropylcellulose) (HPC) 98 % of control | endpoint: mean survival time, dose: 200.0 mg/kg/injection, schedule: Q01DX001 (ip), vehicle: Klucel (hydroxypropylcellulose) (HPC) 93 % of control | [6] 106 % of control | [13] 93 % of control and 98 % of control | [3] 97 % of control | endpoint: mean survival time, dose: 266.0 mg/kg/injection, schedule: Q01DX001 (ip), vehicle: Klucel (hydroxypropylcellulose) (HPC) 89 % of control | endpoint: mean survival time, dose: 400.0 mg/kg/injection, schedule: Q01DX001 (ip), vehicle: Klucel (hydroxypropylcellulose) (HPC) 96 % of control | [7] 96 % of control | [14] 92 % of control | [8] 101 % of control | endpoint: mean survival time, dose: 600.0 mg/kg/injection, schedule: Q01DX001 (ip), vehicle: Klucel (hydroxypropylcellulose) (HPC) 106 % of control

O=NC1C(Cl)C2CC1C1C=CCC12 (stereo not given)
inactive: endpoint: mean survival time, dose: 12.5 mg/kg/injection, schedule: Q01DX009 (ip), vehicle: Klucel (hydroxypropylcellulose) (HPC) 96 % of control | endpoint: mean survival time, dose: 25.0 mg/kg/injection, schedule: Q01DX009 (ip), vehicle: Klucel (hydroxypropylcellulose) (HPC) 98 % of control | [4] 91 % of control | [1] 97 % of control | [2] 94 % of control | [3] 92 % of control | [8] 87 % of control

C=CCc1ccccc1NC(=O)NCCCl
inactive: [4] 106 % of control | [5] 100 % of control | [2] 93 % of control | [6] 111 % of control | [3] 104 % of control

CCCCCCC(O)CCCCCCCCCCC(=O)O (stereo not given)
inactive: [1] 106 % of control | [10] 93 % of control | [11] 88 % of control

O=C(O)c1cc2ccccc2c2cc(Br)ccc12
inactive: endpoint: mean survival time, dose: 100.0 mg/kg/injection, schedule: Q01DX009 (ip), vehicle: saline sonified 100 % of control | [2] 91 % of control | endpoint: mean survival time, dose: 200.0 mg/kg/injection, schedule: Q01DX009 (ip), vehicle: saline sonified 97 % of control | [3] 108 % of control | [8] 103 % of control

CCOC(=O)n1cnc2c(Cl)ncnc21
inactive: endpoint: mean survival time, dose: 100.0 mg/kg/injection, schedule: Q01DX001 (ip), vehicle: other 109 % of control | endpoint: mean survival time, dose: 200.0 mg/kg/injection, schedule: Q01DX001 (ip), vehicle: other 102 % of control | endpoint: mean survival time, dose: 400.0 mg/kg/injection, schedule: Q01DX001 (ip), vehicle: other 110 % of control

COC(=O)C1c2ccoc2CC2C1C(O)C(O)C1C(C)(C)CCCC21C (stereo not given)
inactive: endpoint: mean survival time, dose: 50.0 mg/kg/injection, schedule: Q04DX003 (ip), vehicle: saline with Tween-80 103 % of control | [9] 95 % of control | endpoint: mean survival time, dose: 200.0 mg/kg/injection, schedule: Q04DX003 (ip), vehicle: saline with Tween-80 95 % of control
